Legend:
[1] = 6 month dry powder stability, Alpha Naphthol content by HPLC; assay type: physicochemical
From the text: (§1) NUC-3373 prepared according to Example 3 and Comparative Example 4 was packed into a transparent LDPE bag which was then filled with nitrogen and tied with a strip seal. This bag was then placed into another transparent LDPE bag which was also filled with nitrogen. A silica gel packet was placed between the two bags before the outermost bag was tied with a strip seal. These bags were then placed in a triple laminated sun light barrier bag which was sealed with a heat sealer. The bags were kept in a HDPE container.
(§2) NUC-3373 was initially assayed by HPLC after manufacture (0 months) then after 1 and 2 and/or 3 and 6 months of storage at 2-8° C., 25° C. or 40° C.
The Alpha Naphthol content of the same batches was also determined by HPLC. The levels of the alpha naphthol impurity is a key indicator of stability of the tested material.

[2] = 6 month dry powder stability, HPLC assay; assay type: physicochemical
From the text: as §1, §2

[3] = Solution stability, alpha naphthol (0.60 RRT) in DMA:Saline (80:20 v/v); assay type: physicochemical; set-up: 0.60 RRT (Alpha Naphthol): unit not given here; details: for 0.60 RRT (Alpha Naphthol): 400 mg/mL in DMA:Saline (80:20 v/v)
Procedure: Stability data is also provided in Table 4, which compares the levels of alpha naphthol (0.60 RRT) present in solutions of 400 mg/mL NUC-3373, prepared by Example 3 or 4, above, in DMA:Saline (80:20 v/v) at different temperatures measured over set periods of time. The tested solutions are suitable for infusion and injection and the temperatures and times measured are representative of the environments that solutions suitable for infusion and injection would typically be stored in.
In Table 4 the two values provided for each temperature at each time period, separated by “/”, represent different preparations (samples) of that synthesis.

[4] = tested on: a range of cancer models; details: compared with 5-fluorouracil; cited from earlier work
[5] = tested on: tumour cells; details: non-clinical studies, compared with 5-FU and capecitabine; cited from earlier work
[6] = 12 month dry powder stability, HPLC assay; assay type: physicochemical
From the text: as §1, with “3, above,” for “3 and Comparative Example 4”, “container. The NUC-3373 was initially assayed by HPLC after manufacture then after 3, 6, 9 and 12 months of storage.” for “container.”

[7] = Solution stability in DMA:Saline (80:20 v/v) by UPLC; assay type: physicochemical; details: 2-8° C.; for Assay / Purity / Total Impurities: DMA:Saline (80:20 v/v) solution, UPLC
Procedure: The inventors have found in further work that DMA:Saline (80:20 v/v) solutions of samples obtained according to the process of the invention show no loss of purity or assay, and alpha naphthol impurity up to 12 months at 2-8° C.

[8] = dog, compared with 5-FU; cited from earlier work

In the case of `C[C@H](NP(=O)(OC[C@H]1O[C@@H](n2cc(F)c(=O)[nH]c2=O)CC1O)Oc1cccc2ccccc12)C(=O)OCc1ccccc1` (stereo partly drawn) [Comparative Example 4, 5-fluoro-2′-deoxyuridine-5′-O-[1-naphthyl (benzoxy-L-alaninyl)] phosphate], the “Increase after 6 months, Alpha Naphthol by HPLC” value (from here on “Increase after 6 months”) ([1]; 2-8 ° C.) is reported as “None”, the “Alpha Naphthol by HPLC (% w/w)” value ([1]; 2-8 ° C., 0 months) is reported as 0.09 % w/w and the “Alpha Naphthol by HPLC (% w/w)” value ([1]; 2-8 ° C., 3 months) is reported as 0.10 % w/w. The “Alpha Naphthol by HPLC (% w/w)” value ([1]; 2-8 ° C., 6 months) was 0.09 % w/w, the “Increase after 6 months” value ([1]; 25 ° C.) was 0.1 % w/w and the “Alpha Naphthol by HPLC (% w/w)” value ([1]; 25 ° C., 0 months) was 0.09 % w/w. For the same compound, the “Alpha Naphthol by HPLC (% w/w)” value ([1]; 25 ° C., 3 months) was 0.10 % w/w, the “Alpha Naphthol by HPLC (% w/w)” value ([1]; 25 ° C., 6 months) was 0.10 % w/w and the “Increase after 6 months” value ([1]; 40 ° C.) was 1.11 % w/w. The “Alpha Naphthol by HPLC (% w/w)” value ([1]; 40 ° C., 0 months) was 0.09 % w/w, the “Alpha Naphthol by HPLC (% w/w)” value ([1]; 40 ° C., 1 month) was 0.18 % w/w and the “Alpha Naphthol by HPLC (% w/w)” value ([1]; 40 ° C., 2 months) was 0.27 % w/w. For the same compound, the “Alpha Naphthol by HPLC (% w/w)” value ([1]; 40 ° C., 3 months) was 0.18 % w/w, the “Alpha Naphthol by HPLC (% w/w)” value ([1]; 40 ° C., 6 months) was 1.2 % w/w and the “Decrease after 6 months, HPLC assay” value ([2]; 2-8 ° C.) was “None”. The “HPLC assay (% w/w on anhydrous and solvent free basis)” value ([2]; 2-8 ° C., 0 months) was 100 % w/w, the “HPLC assay (% w/w on anhydrous and solvent free basis)” value ([2]; 2-8 ° C., 3 months) was 100 % w/w and the “HPLC assay (% w/w on anhydrous and solvent free basis)” value ([2]; 2-8 ° C., 6 months) was 100 % w/w. For the same compound, the “Decrease after 6 months, HPLC assay” value ([2]; 25 ° C.) was 0.1 % w/w, the “HPLC assay (% w/w on anhydrous and solvent free basis)” value ([2]; 25 ° C., 0 months) was 99.7 % w/w and the “HPLC assay (% w/w on anhydrous and solvent free basis)” value ([2]; 25 ° C., 3 months) was 99.5 % w/w. The “HPLC assay (% w/w on anhydrous and solvent free basis)” value ([2]; 25 ° C., 6 months) was 99.6 % w/w, the “Decrease after 6 months, HPLC assay” value ([2]; 40 ° C.) was 2.0 % w/w and the “HPLC assay (% w/w on anhydrous and solvent free basis)” value ([2]; 40 ° C., 0 months) was 99.7 % w/w. The “HPLC assay (% w/w on anhydrous and solvent free basis)” value ([2]; 40 ° C., 1 month) was 99.3 % w/w, the “HPLC assay (% w/w on anhydrous and solvent free basis)” value ([2]; 40 ° C., 2 months) was 99.0 % w/w and the “HPLC assay (% w/w on anhydrous and solvent free basis)” value ([2]; 40 ° C., 3 months) was 99.3 % w/w. The “HPLC assay (% w/w on anhydrous and solvent free basis)” value ([2]; 40 ° C., 6 months) was 97.7 % w/w, the “0.60 RRT (Alpha Naphthol)” value ([3]; After 1 month at 2-8° C., first preparation (before "/")) was 0.04/0.04 and the “0.60 RRT (Alpha Naphthol)” value ([3]; After 1 month at 2-8° C., second preparation (after "/")) was 0.04/0.04. For the same compound, the “0.60 RRT (Alpha Naphthol)” value ([3]; After 1 month at 25 ± 5° C., first preparation (before "/")) was 0.29/0.29, the “0.60 RRT (Alpha Naphthol)” value ([3]; After 1 month at 25 ± 5° C., second preparation (after "/")) was 0.29/0.29 and the “0.60 RRT (Alpha Naphthol)” value ([3]; After 3 months at 2-8° C., first preparation (before "/")) was 0.06/0.06. The “0.60 RRT (Alpha Naphthol)” value ([3]; After 3 months at 2-8° C., second preparation (after "/")) was 0.06/0.06, the “0.60 RRT (Alpha Naphthol)” value ([3]; After 3 months at 25 ± 5° C., first preparation (before "/")) was 0.45 and the “0.60 RRT (Alpha Naphthol)” value ([3]; After 3 months at 25 ± 5° C., second preparation (after "/")) was 0.46. For the same compound, the “0.60 RRT (Alpha Naphthol)” value ([3]; After 15 days at 2-8° C., first preparation (before "/")) was 0.04/0.04, the “0.60 RRT (Alpha Naphthol)” value ([3]; After 15 days at 2-8° C., second preparation (after "/")) was 0.04/0.04 and the “0.60 RRT (Alpha Naphthol)” value ([3]; After 15 days at 25 ± 5° C., first preparation (before "/")) was 0.19. The “0.60 RRT (Alpha Naphthol)” value ([3]; After 15 days at 25 ± 5° C., second preparation (after "/")) was 0.20 and the “0.60 RRT (Alpha Naphthol)” value ([3]; Initial) was 0.02.
In the case of `C[C@H](NP(=O)(OC[C@H]1O[C@@H](n2cc(F)c(=O)[nH]c2=O)CC1O)Oc1cccc2ccccc12)C(=O)OCc1ccccc1` (stereo partly drawn) [NUC-3373, 5-fluoro-2′-deoxyuridine-5′-O-[1-naphthyl (benzoxy-L-alaninyl)] phosphate], the “activity in vitro against a range of cancer models” value [4] is listed as “outstanding and far superior to the results obtained with 5-fluorouracil”, the “inhibition of tumour cell growth” value [5] is listed as “much greater inhibition of tumour cell growth” and the “thermal stability compared with other methods of preparation” value ([2]; Tables 2 and 3, prepared according to the process of the invention) is listed as “thermally more stable than those prepared by other methods”. The “HPLC assay (% w/w on anhydrous and solvent free basis)” value ([6]; 5 ± 3° C., 3rd month) was 99.9 % w/w, the “HPLC assay (% w/w on anhydrous and solvent free basis)” value ([6]; 5 ± 3° C., 6th month) was 100.9 % w/w and the “HPLC assay (% w/w on anhydrous and solvent free basis)” value ([6]; 5 ± 3° C., 9th month) was 101.5 % w/w. The “HPLC assay (% w/w on anhydrous and solvent free basis)” value ([6]; 5 ± 3° C., 12th month) was 99.4 % w/w, the “HPLC assay (% w/w on anhydrous and solvent free basis)” value ([6]; 5 ± 3° C., Initial) was 99.6 % w/w and the “HPLC assay (% w/w on anhydrous and solvent free basis)” value ([6]; 25 ± 2° C., 3rd month) was 99.6 % w/w. For the same compound, the “HPLC assay (% w/w on anhydrous and solvent free basis)” value ([6]; 25 ± 2° C., 6th month) was 100.7 % w/w, the “HPLC assay (% w/w on anhydrous and solvent free basis)” value ([6]; 25 ± 2° C., 9th month) was 101.5 % w/w and the “HPLC assay (% w/w on anhydrous and solvent free basis)” value ([6]; 25 ± 2° C., 12th month) was 99.4 % w/w. For the same compound, the “HPLC assay (% w/w on anhydrous and solvent free basis)” value ([6]; 25 ± 2° C., Initial) was 99.6 % w/w, the time chemically stable ([6]; at both 2-8° C. and 15-30° C.) was “at least 12 months” and the Assay ([7]; 3rd month) was 99%. For the same compound, the Purity ([7]; 3rd month) was 99.9%, the “Total Impurities” value ([7]; 3rd month) was 0.07% and the Assay ([7]; 6th month) was 101%. The Purity ([7]; 6th month) was 99.9%, the “Total Impurities” value ([7]; 6th month) was 0.08% and the Assay ([7]; 12th month) was 101%. For the same compound, the Purity ([7]; 12th month) was 99.9%, the “Total Impurities” value ([7]; 12th month) was 0.09% and the Assay ([7]; Initial) was 101%. For the same compound, the Purity ([7]; Initial) was 99.9%, the “Total Impurities” value ([7]; Initial) was 0.07% and the “time solutions chemically and physically stable” value ([7]; DMA:Saline (80:20 v/v) solutions) was “at least 12 months”. The “stability of solutions compared with other methods of preparation” value ([3]; solutions in DMA:Saline (80:20 v/v), particularly at room temperature) was “more stable than those prepared by other methods” and the tolerability [8] was “significantly better tolerated than 5-FU”.

Source: patent US20250296948A1, “SYNTHESIS OF NUCLEOSIDE DERIVATIVES” (Nucana plc, priority 2022, published 2025)
